Assay results reported in patent US11174291B2, “Silstatin compounds” (Arizona Board of Regents on behalf of Arizona State …, priority 2015, dated 2021).

Columns and labels:
BXPC-3 = test: NCI sulforhodamine B growth inhibition, pancreas cancer cells; format: cell-based, human; conditions: BXPC3 pancreas, 48 h
Experimental: (§1) Inhibition of human cancer cell growth was assessed using the National Cancer Institute's standard sulforhodamine B assay as previously described.^19In summary, cells in a 5% fetal bovine serum/RPMI1640 medium were inoculated in 96-well plates and incubated for 24 hrs. Next, serial dilutions of the compounds were added. After 48 h, the plates were fixed with trichloroacetic acid, stained with sulforhodamine B, and read with an automated microplate reader. A growth inhibition of 50% (GI50 or the drug concentration causing a 50% reduction in the net protein increase) was calcd from optical density data with Immunosoft software. Normal cells were treated in identical conditions. Normal human prostate CRL-2221 (PZ—HPV-7) was grown in MEM 10% FBS and normal human breast MCF-10A in MEGM kit.

MCF-7 = test: NCI sulforhodamine B growth inhibition, breast cancer cells; format: cell-based, human; conditions: MCF-7 breast, 48 h
Experimental: as §1

SF268 = test: NCI sulforhodamine B growth inhibition, CNS cancer cells; format: cell-based, human; conditions: 48 h
Experimental: as §1

NCI-H460 = test: NCI sulforhodamine B growth inhibition, lung cancer cells; format: cell-based, human; conditions: 48 h
Experimental: as §1

KM20L2 = test: NCI sulforhodamine B growth inhibition, colon cancer cells; format: cell-based, human; conditions: 48 h
Experimental: as §1

DU-145 = test: NCI sulforhodamine B growth inhibition, prostate cancer cells; format: cell-based, human; conditions: DU145 prostate, 48 h
Experimental: as §1

MCF-10A = test: Sulforhodamine B growth inhibition, normal breast cells; format: cell-based, human; conditions: for Growth inhibition of human normal cell lines GI50: MCF-10A normal breast
Experimental: as §1

CRL-2221 (PZ—HPV-7) = test: Sulforhodamine B growth inhibition, normal prostate cells; format: cell-based, human; conditions: for Growth inhibition of human normal cell lines GI50: CRL-2221 normal prostate
Experimental: as §1

[1] = test system: mini panel of cancer cell lines; test: Growth inhibition across the mini panel of cancer cell lines; format: cell-based, human; conditions: for Cancer cell growth inhibition, assessment in words: mini panel of cancer cell lines (Table 1)
Experimental: as §1
The growth inhibition property of the silstatins and some intermediates were evaluated against a mini panel of cancer cell lines (Table 1).

[2] = amide bond; 36-membered ring; 2 steps

## CC(C)C[C@H]1OC(=O)[C@H](C(C)C)NC(=O)[C@H](C)OC(=O)[C@@H](C(C)C)NC(=O)[C@@H](CC2CCCCC2)OC(=O)[C@H]([C@@H](C)O)NC(=O)[C@H](C)OC(=O)[C@@H](C(C)C)NC(=O)[C@@H](CC(C)C)OC(=O)[C@H](C(C)C)NC(=O)[C@H](C)OC(=O)[C@@H](C(C)C)NC1=O [Silstatin 7 (18a), Cyclo-{Thr-D-Hcha-D-Val-Lac-[Val-D-Hica-D-Val-Lac]2}]
BXPC-3
  Growth inhibition of human cancer cell lines GI50: 3.8 ng/mL
MCF-7
  Growth inhibition of human cancer cell lines GI50: 1.4 ng/mL
SF268
  Growth inhibition of human cancer cell lines GI50: 3.1 ng/mL
NCI-H460
  Growth inhibition of human cancer cell lines GI50: 3.2 ng/mL
KM20L2
  Growth inhibition of human cancer cell lines GI50: 1.5 ng/mL
DU-145
  Growth inhibition of human cancer cell lines GI50: 3 ng/mL
MCF-10A
  Growth inhibition of human normal cell lines GI50: 4 ng/mL
CRL-2221 (PZ—HPV-7)
  Growth inhibition of human normal cell lines GI50: 4 ng/mL
[1]
  Cancer cell growth inhibition, assessment in words: rescuing the activity

## CC(C)C[C@H]1OC(=O)[C@H](C(C)C)NC(=O)[C@H](C)OC(=O)[C@@H](C(C)C)NC(=O)[C@@H](CC(C)C)OC(=O)[C@H](C(C)C)NC(=O)[C@H](C)OC(=O)[C@@H](C(C)C)NC(=O)[C@@H](CC2CCCCC2)OC(=O)[C@H](Cc2ccc(O)cc2)NC(=O)[C@H](C)OC(=O)[C@@H](C(C)C)NC1=O [Silstatin 8 (18b), Cyclo-{Tyr-D-Hcha-D-Val-Lac-[Val-D-Hica-D-Val-Lac]2}]
BXPC-3
  Growth inhibition of human cancer cell lines GI50: 6 ng/mL
MCF-7
  Growth inhibition of human cancer cell lines GI50: 1.1 ng/mL
SF268
  Growth inhibition of human cancer cell lines GI50: 3 ng/mL
NCI-H460
  Growth inhibition of human cancer cell lines GI50: 4 ng/mL
KM20L2
  Growth inhibition of human cancer cell lines GI50: 2.1 ng/mL
DU-145
  Growth inhibition of human cancer cell lines GI50: 5.4 ng/mL
[1]
  Cancer cell growth inhibition, assessment in words: rescuing the activity

## CC(C)C[C@H]1OC(=O)[C@H](C(C)C)NC(=O)[C@H](C)OC(=O)[C@@H](C(C)C)NC(=O)[C@@H](CC2CCCCC2)OC(=O)[C@H]([C@@H](C)OC(=O)CCCN(C)C(=O)OCc2ccc(O[C@@H]3O[C@H](C(=O)O)[C@@H](O)[C@H](O)[C@H]3O)c([N+](=O)[O-])c2)NC(=O)[C@H](C)OC(=O)[C@@H](C(C)C)NC(=O)[C@@H](CC(C)C)OC(=O)[C@H](C(C)C)NC(=O)[C@H](C)OC(=O)[C@@H](C(C)C)NC1=O [Silstatin 28]
BXPC-3
  Growth inhibition of human cancer cell lines GI50: 200 ng/mL
MCF-7
  Growth inhibition of human cancer cell lines GI50: 31 ng/mL
SF268
  Growth inhibition of human cancer cell lines GI50: 50 ng/mL
NCI-H460
  Growth inhibition of human cancer cell lines GI50: 70 ng/mL
KM20L2
  Growth inhibition of human cancer cell lines GI50: 40 ng/mL
DU-145
  Growth inhibition of human cancer cell lines GI50: 130 ng/mL
MCF-10A; MCF-10A
  Decrease of normal cell growth inhibition activity with respect to the parent silstatin 7 (18a): 62.5 times
MCF-10A
  Growth inhibition of human normal cell lines GI50: 250 ng/mL
CRL-2221 (PZ—HPV-7); CRL-2221
  Decrease of normal cell growth inhibition activity with respect to the parent silstatin 7 (18a): 12.5 times
CRL-2221 (PZ—HPV-7)
  Growth inhibition of human normal cell lines GI50: 50 ng/mL
[1]; across the six cancer cell lines of Table 1
  Decrease of cancer cell growth inhibition activity with respect to the parent silstatin 7: 16-52 times

## Cyclo-[Val-D-Hcha-D-Val-Lac]3
[2]
  ring closure, isolated yield: 23%

## Cyclo-[Val-D-Hica-D-Val-Lac]3
[2]
  ring closure, isolated yield: 28%

## Cyclo-{Thr(tBu)-D-Hcha-D-Val-Lac-[Val-D-Hcha-D-Val-Lac]2}
[2]
  ring closure, isolated yield: 29%

## Cyclo-{Thr(tBu)-D-Hcha-D-Val-Lac-[Val-D-Hica-D-Val-Lac]2}
[2]
  ring closure, isolated yield: 48%

## Cyclo-{Thr(tBu)-D-Hica-D-Val-Lac-[Val-D-Hica-D-Val-Lac]2}
[2]
  ring closure, isolated yield: 33%

## Cyclo-{Tyr(tBu)-D-Hcha-D-Val-Lac-[Val-D-Hcha-D-Val-Lac]2}
[2]
  ring closure, isolated yield: 34%

## Cyclo-{Tyr(tBu)-D-Hcha-D-Val-Lac-[Val-D-Hica-D-Val-Lac]2}
[2]
  ring closure, isolated yield: 22%

## Cyclo-{Tyr(tBu)-D-Hica-D-Val-Lac-[Val-D-Hica-D-Val-Lac]2}
[2]
  ring closure, isolated yield: 11%
